Test results reported in PubChem BioAssay AID732 (Emory University Molecular Libraries Screening Center, 2007).
Several values for one entry are separate records, joined by “and”; a condition that tells them apart may be missing. Identical values can stand only once. Activity calls are given as the source filed them. How the calls were made is not given here.

System: in vivo angiogenesis, blood vessel count
Experiment: reduction of blood vessel formation in vivo – HTS, in vivo study (AID 732);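 further: zebrafish embryos dosed at one day post fertilization; 0% = reference inhibitor and 100% = plate mean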
Conditions: active compounds read low;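 tested at 30 µM in the well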

| Compound | vessel count % control |
| --- | --- |
| CC(C)CC(NP(=O)(O)O[C@@H]1O[C@@H](C)[C@H](O)[C@@H](O)[C@H]1O)C(=O)NC(Cc1c[nH]c2ccccc12)C(=O)O (stereo not given in full) | 118% (inactive) |
| C=CCN1CCC2(C)c3cc(O)ccc3CC1C2C (stereo not given) | 109% (inactive) |
| S=C=Nc1cccc(C2(N3CCCCC3)CCCCC2)c1 | 91% (inactive) |
| COC(=O)c1c(-c2cc(OC)c(OC)c(OC)c2)c2ccnc(OCc3ncccn3)c2c(=O)n1Cc1ccnc(C)c1 | 99.4% (inactive) |
| NCC1(CC(=O)O)CCCCC1 | 98.7% (inactive) |
| OCC1O[C@H](O)C(Cl)C(O)C1O (stereo not given in full) | 100% (inactive) |
| COc1cc(CC(=O)O)ccc1O | 116% (inactive) |
| CCCCCCCCCCC/C=C\C(C)(C)/C=C\CCCC(=O)O | 79.5% (inactive) |
| NS(=O)(=O)c1cc2c(cc1Cl)NCNS2(=O)=O | 103% (inactive) |
| OCc1cc(C(O)CNCCCCCCOCCCCc2ccccc2)ccc1O (stereo not given) | 126% (inactive) |
| Nc1ccn([C@H]2CC[C@@H](CO)O2)c(=O)n1 | 103% (inactive) |
| CN1CCc2cc(O)c(O)cc2C(c2ccccc2)C1 (stereo not given) | 107% (inactive) |
| C=C1C(=O)O[C@@H]2[C@H]3O[C@]3(C)CCC=C(C)CC[C@@H]12 | 92.5% (inactive) |
| CCCCCCCC/C=C\CCCCCCCC(=O)NCCc1ccc(O)c(O)c1 | 115% (inactive) |
| CC(C(=O)O)c1ccc(CC2CCCC2=O)cc1 (stereo not given) | 113% (inactive) |
| O=C1O/C(=C/Br)CCC1c1cccc2ccccc12 (stereo not given) | 87.4% (inactive) |
| CCCCNc1c(C(=O)OCC)c(C)nc2c1cnn2CC | 87.3% (inactive) |
| CC1CCN(CC[C@H]2CCCN2S(=O)(=O)c2cccc(O)c2)CC1 | 95.5% (inactive) |
| CNc1ncnc2c1ncn2[C@H]1C[C@H](OP(=O)(O)O)[C@@H](COP(=O)(O)O)O1 | 93.2% (inactive) |
| Cn1ccnc1 | 109% (inactive) |
| CN1C(=O)CCS(=O)(=O)C1c1ccc(Cl)cc1 (stereo not given) | 97% (inactive) |
| CNC[C@H](O)c1ccc(O)c(O)c1 | 94% (inactive) |
| CC(C)(C)c1cc(/C=C(\C#N)C(N)=S)cc(C(C)(C)C)c1O | 0% (inactive) |
| NC(CCCP(=O)(O)O)C(=O)O (stereo not given) | 75.8% (inactive) |
| CSC(=N)N | 68.6% (inactive) |

| Compound | vessel count % control |
| --- | --- |
| O=C(O)/C(=C/c1c(C(=O)O)[nH]c2cc(Cl)cc(Cl)c12)c1ccccc1 | 108% (inactive) |
| O=c1cc(N2CCOCC2)oc2c(-c3ccccc3)cccc12 | 120% (inactive) |
| NC(=O)C1=CN(C2OC(COP(=O)(O)OP(=O)(O)OC[C@H]3O[C@@H](n4cnc5c(N)ncnc54)C(OP(=O)(O)O)[C@H]3O)C(O)C2O)C=CC1 (stereo not given in full) | 101% (inactive) |
| Cc1cnc(NC(=O)C2=C(O)c3ccccc3S(=O)(=O)N2C)s1 | 136% (inactive) |
| CN(C)CCCN1c2ccccc2CCc2ccc(Cl)cc21 | 85.2% (inactive) |
| Fc1ccc(C(OCCN2CCN(CCCc3ccccc3)CC2)c2ccc(F)cc2)cc1 | 71.4% (inactive) |
| COC(=O)C(N)Cc1ccc(Cl)cc1 (stereo not given) | 82.4% (inactive) |
| CCCCCCCCCCCCCCCCCC(=O)OC(CC(=O)O)C[N+](C)(C)C (stereo not given) | 71.9% (inactive) |
| COC(=O)N1CCN(C(=O)Cc2ccc(Cl)c(Cl)c2)C(CN2CCCC2)C1 (stereo not given) | 116% (inactive) |
| N[C@@H](CCl)C(=O)O | 101% (inactive) |
| CCC(=O)N1CCN(C(=O)c2ccccc2)CC1 | 134% (inactive) |
| O=S(=O)(NCCNC/C=C/c1ccc(Br)cc1)c1cccc2cnccc12 | 90.3% (inactive) |
| CCCCCCCCCCCCCC(=O)O[C@@H]1[C@@H](C)[C@@]2(O)[C@@H](C=C(CO)C[C@@]3(O)C(=O)C(C)=C[C@@H]23)C2C(C)(C)[C@@]21OC(C)=O (stereo not given in full) | 0% (inactive) |
| CC(CN1c2ccccc2Sc2ccccc21)N(C)C (stereo not given) | 97.7% (inactive) |
| CCCn1cnc2c1c(=O)n(CCCCC(C)=O)c(=O)n2C | 107% (inactive) |
| C[C@H](Cc1ccc2c(c1)OC(C(=O)O)(C(=O)O)O2)NC[C@H](O)c1cccc(Cl)c1 | 98.2% (inactive) |
| CN(C)CCC(c1ccc(Cl)cc1)c1ccccn1 (stereo not given) | 128% (inactive) |
| CC(=O)N[C@@H](Cc1c[nH]c2ccccc12)C(=O)OCc1cc(C(F)(F)F)cc(C(F)(F)F)c1 | 70.4% (inactive) |
| CCCCN1CCC(COC(=O)c2cc(Cl)c(N)c3c2OCCO3)CC1 | 105% (inactive) |
| O=C(O)CCC(C(=O)O)N1C(=O)c2ccccc2C1=O (stereo not given) | 105% (inactive) |
| CCCNC(=O)NS(=O)(=O)c1ccc(Cl)cc1 | 124% (inactive) |
| CCn1cnc2c(Nc3cccc(Cl)c3)nc(N[C@@H]3CCCC[C@@H]3N)nc21 | 88.4% (inactive) |
| CCCn1c(C)c(C(=O)c2ccc3ccccc3c2)c2ccccc21 | 110% (inactive) |
| O=C(N[C@@H](Cc1ccccc1)C(=O)CCl)OCc1ccccc1 | 0% (inactive) |
| O=Nc1c(-c2c(O)[nH]c3c(Cl)cc(Cl)cc23)[nH]c2ccc(Br)cc12 | 126% (inactive) |

| Compound | vessel count % control |
| --- | --- |
| Cc1cn([C@H]2C=C[C@@H](CO)O2)c(=O)[nH]c1=O | 99.1% (inactive) |
| NCCNC(=O)c1ncsc1-c1cccc(F)c1 | 102% (inactive) |
| O=Nc1ccc2oc(=O)ccc2c1 | 95% (inactive) |
| NC(CP(=O)(O)O)C(=O)O (stereo not given) | 103% (inactive) |
| N=C(N)SCCN | 110% (inactive) |
| c1ccc2sc(C3(N4CCCCC4)CCCCC3)cc2c1 | 93.4% (inactive) |
| NC(=NCCC[C@H](N)C(=O)O)N[N+](=O)[O-] | 96.2% (inactive) |
| CNC(=O)[C@H]1O[C@@H](n2cnc3c(NCc4cccc(I)c4)ncnc32)C(O)[C@H]1O (stereo not given in full) | 83.3% (inactive) |
| Oc1cc(O)c2c(c1)O[C@H](c1ccc(O)c(O)c1)[C@@H](O)C2 | 114% (inactive) |
| CCn1cc(C(=O)O)c(=O)c2cc3c(cc21)OCO3 | 121% (inactive) |
| NCCCC(N)(C(=O)O)C(F)F (stereo not given) | 80.5% (inactive) |
| Cc1cn([C@H]2C[C@@H](N=[N+]=[N-])[C@@H](CO)O2)c(=O)[nH]c1=O | 91.6% (inactive) |
| N.N.O=C(O)C1(C(=O)O)CCC1.[Pt+2] | 105% (inactive) |
| Cn1cnc([N+](=O)[O-])c1Sc1ncnc2nc[nH]c12 | 81.5% (inactive) |
| NCCS | 106% (inactive) |
| Nc1nc(SCc2ccc([N+](=O)[O-])cc2)c2ncn([C@@H]3O[C@H](CO)[C@H](O)C3O)c2n1 (stereo not given in full) | 112% (inactive) |
| CNCCC=C1c2ccccc2CCc2ccccc21 | 103% (inactive) |
| Nc1ncnc2c1nc(Br)n2C1OC2COP(=O)(O)O[C@@H]2C1O (stereo not given in full) | 101% (inactive) |
| O=[N+]([O-])c1ccc(O[C@@H]2O[C@H](CO)[C@@H](O)[C@H](O)[C@H]2F)c([N+](=O)[O-])c1 | 99.2% (inactive) |
| O=C(O)CC1CCCc2ccccc2C1O (stereo not given) | 137% (inactive) |
| CCCC[C@@]1(C2CCCC2)Cc2cc(OCC(=O)O)c(Cl)c(Cl)c2C1=O | 121% (inactive) |
| NCCCCCCNS(=O)(=O)c1cccc2c(Cl)cccc12 | 117% (inactive) |
| O=C(Cc1ccc(Cl)c(Cl)c1)N1CCCCC1CN1CCCC1 (stereo not given) | 114% (inactive) |
| COc1cc2c(cc1OC)-c1cc(=Nc3c(C)cc(C)cc3C)n(C)c(=O)n1CC2 | 58.5% (inactive) |
| CCCCCC(O)CCCC(=O)O (stereo not given) | 101% (inactive) |

| Compound | vessel count % control |
| --- | --- |
| Cn1ccc2cc3c(cc21)CCN3C(=O)Nc1cccnc1 | 88% (inactive) |
| C[N+](C)(C)CCCCCC[N+](C)(C)C | 115% (inactive) and 117% (inactive) |
| CC(C)NCC(O)COc1ccc(CC(N)=O)cc1 (stereo not given) | 102% (inactive) |
| CN1CCC(c2c[nH]c3ccc(O)cc23)CC1 | 95.9% (inactive) |
| CCCCCCCCCCCCCCSCC(=O)O | 93.7% (inactive) |
| Cc1nc(N=Nc2ccc(S(=O)(=O)O)cc2S(=O)(=O)O)c(COP(=O)(O)O)c(C=O)c1O | 110% (inactive) |
| CC(=O)O[C@]1(C(C)=O)CC[C@H]2[C@@H]3C=C(Cl)C4=CC(=O)[C@@H]5C[C@@H]5[C@]4(C)[C@H]3CC[C@@]21C | 71.2% (inactive) |
| COc1ccc2cc([C@H](C)C(=O)O)ccc2c1 | 101% (inactive) |
| c1ccc2c(c1)OCC(C1=NCCN1)O2 (stereo not given) | 146% (inactive) |
| O=C(O)[C@H]1NCCC[C@H]1C(=O)O | 121% (inactive) |
| COc1cc2c(CCNC(C)=O)c[nH]c2cc1O | 105% (inactive) |
| Cc1nc2n(c(=O)c1CCN1CCC(c3noc4cc(F)ccc34)CC1)CCCC2 | 104% (inactive) |
| Cc1ccc(S(=O)(=O)NC(=O)NN2CCCCCC2)cc1 | 102% (inactive) |
| N[C@@H](CCCC(=O)O)C(=O)O | 130% (inactive) |
| CC(C)NC(C)Cc1ccc(I)cc1 (stereo not given) | 109% (inactive) |
| NNCCc1ccccc1 | 104% (inactive) |
| CN(C)CCN(Cc1cccs1)c1ccccn1 | 110% (inactive) |
| Cc1cccc(/C=C/c2ccccc2)n1 | 74.2% (inactive) |
| Ic1ccc(N2CCN(Cc3c[nH]c4ncccc34)CC2)cc1 | 99.4% (inactive) |
| CC1COc2c(N3CCN(C)CC3)c(F)cc3c(=O)c(C(=O)O)cn1c23 (stereo not given) | 74.9% (inactive) |
| Nc1ccc(N2C(=O)c3ccccc3C2=O)c(Cl)c1 | 78.4% (inactive) |
| CCCN1CCC[C@@H](c2cccc(O)c2)C1 | 91.2% (inactive) |
| CS(=N)(=O)CC[C@H](N)C(=O)O (stereo not given in full) | 99.4% (inactive) |
| CN1CCc2cccc(Cl)c2CC1 | 93.2% (inactive) |
| CC(CCc1ccc(O)cc1)NCCc1ccc(O)c(O)c1 (stereo not given) | 92.8% (inactive) |
